Test [1] deals with Human Rhinovirus 16 (HRV16). The test is described as follows: H1-HeLa HRV-CTG 384-well assay, HRV16, Example X. The format is cell-based. As to conditions: Rhinovirus A, 96 h; H1-HeLa cells, HRV16 MOI 0.25, 4 days, Celltiter-Glo; read-out: EC50 H1-HeLa_HRV 16_HRV-CTG 384-well Assay (per Ex. X). The source says:
(§1) Example X: H1-HeLa HRV-CTG 384-Well Assay
(§2) H1-Hela cell line (ATCC, Manassas, VA, Cat #CRL-1958) was maintained in Dulbecco's […] (DMEM) (Corning, New York, NY, Cat #15-018CM) supplemented with 10% fetal bovine serum (FBS) (Hyclone, Logan, UT, Cat #SH30071-03), and 1× Penicillin-Streptomycin-L-Glutamine (Corning, New York, NY, Cat #30-009-CI). Cells were passaged 2 times per week to maintain sub-confluent densities and were used for experiments at passage 5-30. The Human Rhinovirus 1B (HRV1B) (ATCC, Manassas, VA, Cat #VR-1645), Human Rhinovirus 14 (HRV14) (ATCC, Manassas, VA, Cat #VR-284), and Human Rhinovirus 16 (HRV16) (ATCC, Manassas, VA, Cat #BR-283) was obtained through ATCC. Viral infection was monitored by determining viability of H1-HeLa cells as described below.
(§3) Test molecules are prepared in 100% DMSO in 384-well polypropylene plates (Greiner, Monroe, NC, Cat #784201) with 8 compounds per plate in grouped replicates of 4 at 10 serially diluted concentrations (1:3). The serially diluted compounds were transferred to low dead volume Echo plates (Labcyte, Sunnyvale, CA, Cat #LP-0200).
(§4) The test compounds were spotted to 384-well assay plates (Greiner, Monroe, NC, Cat #781091) at 200 nL per well using an Echo acoustic dispenser (Labcyte, Sunnyvale, CA). H1-HeLa cells were harvested and suspended in DMEM (supplemented with 2% FBS and 1× Penicillin-Streptomycin-L-Glutamine) and seeded to the pre-spotted assay plates at 5,000 cells per well in 30 μL. HRV1B, HRV14, and HRV16 was diluted in DMEM (supplemented with 2% FBS and 1× Penicillin-Streptomycin-L-Glutamine) at 97.1 million Infectious Units (IU) per mL, 151 million IU per mL and 221 million IU per mL respectively. 10 μL of virus per well was added to the assay plates containing cells and compounds, for an MOI of 0.5, 1.0, and 0.25 respectively. The assay plates were incubated for 4 days at 37° C. and 5% CO2. At the end of incubation, Celltiter-Glo (Promega, Madison, WI, Cat #G7573) was prepared. The assay plates and Celltiter-Glo reagent were equilibrated to room temperature for at least 15 minutes. 40 μL per well of Celltiter-Glo reagent was added and the plates were incubated at room temperature for 15 minutes before reading the luminescence signal on an EnVision multimode plate reader (Perkin Elmer, Waltham, MA). Rupintrivir was used as positive control and DMSO was used as negative control. Values were normalized to the positive and negative controls (as 0% and 100% replication, respectively) and data was fitted using non-linear regression analysis by Gilead's dose response tool. The EC50 value for each compound was defined as the concentration reducing viral replication by 50%.
(In general: In ATP-based viability assays light output follows the ATP content of the culture.)

Test [2] deals with Human Rhinovirus 14 (HRV14). Kind of test: H1-HeLa HRV-CTG 384-well assay, HRV14, Example X. It is filed as cell-based. As to conditions: Rhinovirus B, 96 h; H1-HeLa cells, HRV14 MOI 1.0, 4 days, Celltiter-Glo; read-out: EC50 H1-HeLa_HRV 14_HRV-CTG 384-well Assay (per Ex. X).
From the text: as §1, §2, §3, §4

Turning to `N#C[C@]1(COC(=O)OCCc2ccccc2)O[C@@H](c2ccc3c(N)ncnn23)[C@H](O)[C@@H]1O` [Compound 5, ((2R,3S,4R,5S)-5-(4-aminopyrrolo[2,1-f][1,2,4]triazin-7-yl)-2-cyano-3,4-dihydroxytetrahydrofuran-2-yl)methyl phenethyl carbonate], the results for the EC50 in test [1] and in test [2] were 11.2 µM and 9.75 µM, respectively.
In the same order, the values of `CC(C)CCOC(=O)OC[C@@]1(C#N)O[C@@H](c2ccc3c(N)ncnn23)[C@H](O)[C@@H]1O` [Compound 7, ((2R,3S,4R,5S)-5-(4-aminopyrrolo[2,1-f][1,2,4]triazin-7-yl)-2-cyano-3,4-dihydroxytetrahydrofuran-2-yl)methyl isopentyl carbonate] are 9.13 µM and 7.31 µM.
In the same order, the values of `CC(C)COC(=O)Nc1ncnn2c([C@@H]3O[C@](C#N)(CO)[C@@H](O)[C@H]3O)ccc12` [Compound 16, Isobutyl (7-((2S,3R,4S,5R)-5-cyano-3,4-dihydroxy-5-(hydroxymethyl)tetrahydrofuran-2-yl)pyrrolo[2,1-f][1,2,4]triazin-4-yl)carbamate] are 50 µM and 50 µM.
On to `N#C[C@]1(COC(=O)OC2CCC2)O[C@@H](c2ccc3c(N)ncnn23)[C@H](O)[C@@H]1O` [Compound 17, ((2R,3S,4R,5S)-5-(4-aminopyrrolo[2,1-f][1,2,4]triazin-7-yl)-2-cyano-3,4-dihydroxytetrahydrofuran-2-yl)methyl cyclobutyl carbonate], for which the EC50 (commonly the concentration at which the effect is half-maximal) is 15.1 µM in test [1] and 18.4 µM in test [2].
For the compound `CCCCCCOC(=O)OC[C@@]1(C#N)O[C@@H](c2ccc3c(N)ncnn23)[C@H](O)[C@@H]1O` [Compound 19, ((2R,3S,4R,5S)-5-(4-aminopyrrolo[2,1-f][1,2,4]triazin-7-yl)-2-cyano-3,4-dihydroxytetrahydrofuran-2-yl)methyl hexyl carbonate], the concentration for a half-maximal effect (EC50) in test [1] was found to be 8.39 µM; in test [2] it was 7 µM.
In the same order, the values of `CCCCCOC(=O)OC[C@@]1(C#N)O[C@@H](c2ccc3c(N)ncnn23)[C@H](O)[C@@H]1O` [Compound 20, ((2R,3S,4R,5S)-5-(4-aminopyrrolo[2,1-f][1,2,4]triazin-7-yl)-2-cyano-3,4-dihydroxytetrahydrofuran-2-yl)methyl pentyl carbonate] are 9.58 µM and 12.3 µM.
In the same order, the values of `N#C[C@]1(COC(=O)OC2CCCCC2)O[C@@H](c2ccc3c(N)ncnn23)[C@H](O)[C@@H]1O` [Compound 21, ((2R,3S,4R,5S)-5-(4-aminopyrrolo[2,1-f][1,2,4]triazin-7-yl)-2-cyano-3,4-dihydroxytetrahydrofuran-2-yl)methyl cyclohexyl carbonate] are 26.7 µM and 23.5 µM.
Turning to `CCOC(=O)OC[C@@]1(C#N)O[C@@H](c2ccc3c(N)ncnn23)[C@H](O)[C@@H]1O` [Compound 22, ((2R,3S,4R,5S)-5-(4-aminopyrrolo[2,1-f][1,2,4]triazin-7-yl)-2-cyano-3,4-dihydroxytetrahydrofuran-2-yl)methyl ethyl carbonate], the figures for the EC50 in test [1] and in test [2] were 26.3 µM and 19.9 µM, respectively.
Take `N#C[C@]1(COC(=O)OC2CC2)O[C@@H](c2ccc3c(N)ncnn23)[C@H](O)[C@@H]1O` [Compound 23, ((2R,3S,4R,5S)-5-(4-aminopyrrolo[2,1-f][1,2,4]triazin-7-yl)-2-cyano-3,4-dihydroxytetrahydrofuran-2-yl)methyl cyclopropyl carbonate]: the EC50 worked out at 9.64 µM in test [1] and 11.4 µM in test [2].
Turning to `CC[C@H](C)COC(=O)OC[C@@]1(C#N)O[C@@H](c2ccc3c(N)ncnn23)[C@H](O)[C@@H]1O` [Compound 28, ((2R,3S,4R,5S)-5-(4-aminopyrrolo[2,1-f][1,2,4]triazin-7-yl)-2-cyano-3,4-dihydroxytetrahydrofuran-2-yl)methyl ((S)-2-methylbutyl) carbonate], the EC50 turned out to be 9.51 µM in test [1] and 8.73 µM in test [2].
In the same order, the values of `N#C[C@]1(COC(=O)OCc2ccccc2)O[C@@H](c2ccc3c(N)ncnn23)[C@H](O)[C@@H]1O` [Compound 29, ((2R,3S,4R,5S)-5-(4-aminopyrrolo[2,1-f][1,2,4]triazin-7-yl)-2-cyano-3,4-dihydroxytetrahydrofuran-2-yl)methyl benzyl carbonate] are 9.86 µM and 8.06 µM.
On the same counts, the results for `N#C[C@]1(COC(=O)OCC2CCCC2)O[C@@H](c2ccc3c(N)ncnn23)[C@H](O)[C@@H]1O` [Compound 30, ((2R,3S,4R,5S)-5-(4-aminopyrrolo[2,1-f][1,2,4]triazin-7-yl)-2-cyano-3,4-dihydroxytetrahydrofuran-2-yl)methyl (cyclopentylmethyl) carbonate] are 8.88 µM and 5.58 µM.
Regarding `CCC(CC)COC(=O)OC[C@@]1(C#N)O[C@@H](c2ccc3c(N)ncnn23)[C@H](O)[C@@H]1O` [Compound 31, ((2R,3S,4R,5S)-5-(4-aminopyrrolo[2,1-f][1,2,4]triazin-7-yl)-2-cyano-3,4-dihydroxytetrahydrofuran-2-yl)methyl (2-ethylbutyl) carbonate], the figures for the EC50 in test [1] and in test [2] were 9.07 µM and 7.62 µM, respectively.
In the same order, the values of `N#C[C@]1(COC(=O)OCC2CC2)O[C@@H](c2ccc3c(N)ncnn23)[C@H](O)[C@@H]1O` [Compound 32, ((2R,3S,4R,5S)-5-(4-aminopyrrolo[2,1-f][1,2,4]triazin-7-yl)-2-cyano-3,4-dihydroxytetrahydrofuran-2-yl)methyl (cyclopropylmethyl) carbonate] are 12.1 µM and 11.5 µM.
In the same order, the values of `CCCOCCOC(=O)OC[C@@]1(C#N)O[C@@H](c2ccc3c(N)ncnn23)[C@H](O)[C@@H]1O` [Compound 34, ((2R,3S,4R,5S)-5-(4-aminopyrrolo[2,1-f][1,2,4]triazin-7-yl)-2-cyano-3,4-dihydroxytetrahydrofuran-2-yl)methyl (2-propoxyethyl) carbonate] are 12.1 µM and 14 µM.
For `CC(C)(C)CCOC(=O)OC[C@@]1(C#N)O[C@@H](c2ccc3c(N)ncnn23)[C@H](O)[C@@H]1O` [Compound 35, ((2R,3S,4R,5S)-5-(4-aminopyrrolo[2,1-f][1,2,4]triazin-7-yl)-2-cyano-3,4-dihydroxytetrahydrofuran-2-yl)methyl (3,3-dimethylbutyl) carbonate], the EC50 in test [1] worked out at 15.1 µM; in test [2], 12.2 µM.
`N#C[C@]1(COC(=O)OC2CC3(CCC3)C2)O[C@@H](c2ccc3c(N)ncnn23)[C@H](O)[C@@H]1O` [Compound 36, ((2R,3S,4R,5S)-5-(4-aminopyrrolo[2,1-f][1,2,4]triazin-7-yl)-2-cyano-3,4-dihydroxytetrahydrofuran-2-yl)methyl spiro[3.3]heptan-2-yl carbonate]: the EC50 is 12 µM in test [1] and 10.6 µM in test [2].
In the same order, the values of `CC1(C)CC(OC(=O)OC[C@@]2(C#N)O[C@@H](c3ccc4c(N)ncnn34)[C@H](O)[C@@H]2O)C1` [Compound 37, ((2R,3S,4R,5S)-5-(4-aminopyrrolo[2,1-f][1,2,4]triazin-7-yl)-2-cyano-3,4-dihydroxytetrahydrofuran-2-yl)methyl (3,3-dimethylcyclobutyl) carbonate] are 12.6 µM and 20.5 µM.

Source of the values: patent US20230382940A1, “ANTIVIRAL COMPOUNDS AND METHODS OF MAKING AND USING THE SAME” (Gilead Sciences, Inc., priority 2022, published 2023).
